Measurements: patent EP4807001A1, “MODIFICATION TEMPLATE FOR IMPROVING INHIBITORY EFFECT OF DOUBLE-STRANDED OLIGONUCLEOTIDE ON TARGET GENE, COMBINATION THEREOF AND USE THEREOF” (Hangzhou Tianlong Pharmaceutical Co., Ltd., priority 2023, dated 2025)

Key:
AGT mRNA = experiment: Inhibition of AGT mRNA expression in primary human hepatocytes via free uptake, qRT-PCR (Example 24); format: cell-based; details: 0.0064 nM to 100 nM, read-out: IC50 against AGT
Description: The inhibitory effects of the test samples on AGT mRNA expression in primary human hepatocytes were evaluated by qRT-PCR.
The culture medium was pre-warmed at a constant temperature of 37°C for at least 30 minutes. 300 µL of PBS was added to each well of a collagen-coated 24-well plate, which was shaken several times, and the PBS was aspirated. A cryovial containing hepatocytes was removed from liquid nitrogen, placed in a 37°C water bath, and gently shaken until only a small amount of ice crystals remained in the vial. The cell suspension was poured into thawing medium in one step. 1 mL of thawing medium was pipetted to rinse the inner wall of the cryovial 2 to 3 times. The cell suspension in thawing medium was mixed by inversion. The vial was centrifuged at 50 g for 5 minutes at room temperature, with acceleration set to 5 and deceleration set to 3. The cell suspension was diluted to 3 × 10^5 cells/mL in seeding medium, seeded into a 24-well plate at 0.5 mL per well, followed by incubation in an incubator for 24 hours.
The test samples were diluted to 100 to 0.0064 nM in primary human hepatocyte maintenance medium. […]
The RNA expression levels of the target gene in each sample were calculated based on Ct values using the ΔΔCt relative quantification method. Relative expression of the target gene was expressed as 2^-ΔΔCt. […]

[1] = Plasma ALT levels in AAV-HBV mice (Examples 14-16); format: in vivo
Description: At week 4 (D-14) and week 5 (D-7) post-modeling, on the day prior to dosing (D0), and weekly post-dosing, 200 µL of blood was collected from the inner canthus and added to an EDTA-K2 tube, followed by centrifugation at 1000 g for 10 minutes to obtain plasma. The 12 mice in the two groups were subjected to challenge on D60. 200 µL of blood was collected from the inner canthus on D63, D67, D74, and D81, respectively, and added to an EDTA-K2 tube, followed by centrifugation at 1000 g for 10 minutes to obtain plasma. 20 µL of plasma was added to 980 µL of PBS, vortexed thoroughly, and analyzed for HBsAg, HBV DNA, HBeAg, and ALT levels. Separately, 15 µL of plasma was added to 210 µL of PBS, vortexed thoroughly, and analyzed for HBsAb levels. All processed samples to be tested were analyzed by Guangzhou Huayin Medical Research Institute. The remaining plasma was stored at - 80°C.
Blood was collected from all animals via submandibular venipuncture on Days -2, 6, 13, 20, 27, and 34. The collected blood samples were anticoagulated with EDTA and centrifuged at 5000 rpm for 10 minutes to obtain serum. After blood collection, the serum was separated, diluted with PBS, and sent for analysis. A 10 µL aliquot of serum was taken from each sample, diluted to 500 µL with PBS (50-fold dilution), and sent to Beijing DIAN Medical Laboratory Co., Ltd. for analysis of serum HBV DNA, HBeAg, and HBsAg. A 30 µL aliquot of serum was taken from each sample, diluted to 120 µL with PBS (4-fold dilution), and sent to Beijing DIAN Medical Laboratory Co., Ltd. for analysis of serum ALT. The remaining plasma was stored at -80°C.

HBV = experiment: AAV-HBV mouse model, low dose 0.5 mg/kg (Example 15); format: in vivo, AAV-HBV mice; details: for Log10 HBV DNA (IU/mL) / Log10 HBeAg (S/CO) / Log10 HBsAg (IU/mL) / HBsAb: plasma; for Log10 HBV DNA (IU/mL) / Log10 HBeAg (S/CO) / Log10 HBsAg (IU/mL): AAV-HBV mice, siRNA 0.5 mg/kg s.c. D0/7/14, ETV 0.1 mg/kg daily i.g.
Description: In this example, several sequences were exemplarily selected, such as the sequences C207S-DV32SPG5, C207S-DV29SPG5, C418S-DV34SPd7BG5, and C1575-DV27PG5 from Example 14, as shown in Table 49. The in vivo efficacy of these RNAi agents at a low dose (e.g., 0.5 mg/kg) was analyzed using an AAV-HBV mouse model.
Refer to Example 7. Table 51-10: Details of grouping and dosing

Zilebesiran
IC50 (AGT mRNA): 7.07 nM

C=C1[C@H](CO)[C@@H](O)C[C@@H]1n1cnc2c(=O)[nH]c(N)nc21 [entecavir]
ALT ([1]; D7, Example 15 (low dose 0.5 mg/kg)): 75 U/L
ALT ([1]; D14, Example 15 (low dose 0.5 mg/kg)): 75 U/L
ALT ([1]; D21, Example 15 (low dose 0.5 mg/kg)): 75 U/L
ALT ([1]; D28, Example 15 (low dose 0.5 mg/kg)): 75 U/L
ALT ([1]; D35, Example 15 (low dose 0.5 mg/kg)): 75 U/L
ALT ([1]; D42, Example 15 (low dose 0.5 mg/kg)): 75 U/L
Number of mice producing HBsAb (HBV; D7, low dose 0.5 mg/kg): 0
Number of mice producing HBsAb (HBV; D14, low dose 0.5 mg/kg): 0
Number of mice producing HBsAb (HBV; D21, low dose 0.5 mg/kg): 0
Number of mice producing HBsAb (HBV; D28, low dose 0.5 mg/kg): 0
Number of mice producing HBsAb (HBV; D35, low dose 0.5 mg/kg): 0
Number of mice producing HBsAb (HBV; D42, low dose 0.5 mg/kg): 0
Number of mice producing HBsAb (HBV; D49, low dose 0.5 mg/kg): 0
Number of mice producing HBsAb (HBV; D56, low dose 0.5 mg/kg): 0
Log10 HBV DNA (IU/mL) (HBV; D0): 6.91 ± 0.58 IU/mL
Log10 HBeAg (S/CO) (HBV; D0): 3.73 ± 0.06 S/CO
Log10 HBsAg (IU/mL) (HBV; D0): 3.47 ± 0.34 IU/mL
Log10 HBV DNA (IU/mL) (HBV; D7): 4.49 ± 0.54 IU/mL
Log10 HBeAg (S/CO) (HBV; D7): 3.72 ± 0.05 S/CO
Log10 HBsAg (IU/mL) (HBV; D7): 3.50 ± 0.33 IU/mL
Log10 HBV DNA (IU/mL) (HBV; D14): 3.85 ± 0.24 IU/mL
Log10 HBeAg (S/CO) (HBV; D14): 3.72 ± 0.03 S/CO
Log10 HBsAg (IU/mL) (HBV; D14): 3.54 ± 0.25 IU/mL
Log10 HBV DNA (IU/mL) (HBV; D21): 3.89 ± 0.31 IU/mL
Log10 HBeAg (S/CO) (HBV; D21): 3.66 ± 0.05 S/CO
Log10 HBsAg (IU/mL) (HBV; D21): 3.74 ± 0.14 IU/mL
Log10 HBV DNA (IU/mL) (HBV; D28): 3.77 ± 0.37 IU/mL
Log10 HBeAg (S/CO) (HBV; D28): 3.71 ± 0.06 S/CO
Log10 HBsAg (IU/mL) (HBV; D28): 3.94 ± 0.27 IU/mL
Log10 HBV DNA (IU/mL) (HBV; D35): 3.74 ± 0.25 IU/mL
Log10 HBeAg (S/CO) (HBV; D35): 3.66 ± 0.05 S/CO
Log10 HBsAg (IU/mL) (HBV; D35): 3.96 ± 0.39 IU/mL
Log10 HBV DNA (IU/mL) (HBV; D42): 3.63 ± 0.08 IU/mL
Log10 HBeAg (S/CO) (HBV; D42): 3.68 ± 0.05 S/CO
Log10 HBsAg (IU/mL) (HBV; D42): 4.04 ± 0.40 IU/mL
Log10 HBV DNA (IU/mL) (HBV; D49): 3.97 ± 0.13 IU/mL
Log10 HBeAg (S/CO) (HBV; D49): 3.69 ± 0.08 S/CO
Log10 HBsAg (IU/mL) (HBV; D49): 4.22 ± 0.33 IU/mL
Log10 HBV DNA (IU/mL) (HBV; D56): 4.04 ± 0.32 IU/mL
Log10 HBeAg (S/CO) (HBV; D56): 3.70 ± 0.04 S/CO
Log10 HBsAg (IU/mL) (HBV; D56): 4.20 ± 0.30 IU/mL
Log10 HBV DNA (IU/mL) (HBV; D-7 (before dosing)): 6.65 ± 0.58 IU/mL
Log10 HBeAg (S/CO) (HBV; D-7 (before dosing)): 3.77 ± 0.06 S/CO
Log10 HBsAg (IU/mL) (HBV; D-7 (before dosing)): 3.36 ± 0.26 IU/mL
HBsAb (HBV; D7, low dose 0.5 mg/kg): 30 mIU/mL
HBsAb (HBV; D14, low dose 0.5 mg/kg): 30 mIU/mL
HBsAb (HBV; D21, low dose 0.5 mg/kg): 30 mIU/mL
HBsAb (HBV; D28, low dose 0.5 mg/kg): 30 mIU/mL
HBsAb (HBV; D35, low dose 0.5 mg/kg): 30 mIU/mL
HBsAb (HBV; D42, low dose 0.5 mg/kg): 30 mIU/mL
HBsAb (HBV; D49, low dose 0.5 mg/kg): 30 mIU/mL
HBsAb (HBV; D56, low dose 0.5 mg/kg): 30 mIU/mL
